The source of these data is patent publication US7642350B2, “Purine derivatives” (Pfizer Limited, priority 2005, dated 2010).

Test [1] has as its target T1, TLR7 receptor (Homo sapiens, UniProt Q9NYK1).
T1 sequence (Q9NYK1 27-1049): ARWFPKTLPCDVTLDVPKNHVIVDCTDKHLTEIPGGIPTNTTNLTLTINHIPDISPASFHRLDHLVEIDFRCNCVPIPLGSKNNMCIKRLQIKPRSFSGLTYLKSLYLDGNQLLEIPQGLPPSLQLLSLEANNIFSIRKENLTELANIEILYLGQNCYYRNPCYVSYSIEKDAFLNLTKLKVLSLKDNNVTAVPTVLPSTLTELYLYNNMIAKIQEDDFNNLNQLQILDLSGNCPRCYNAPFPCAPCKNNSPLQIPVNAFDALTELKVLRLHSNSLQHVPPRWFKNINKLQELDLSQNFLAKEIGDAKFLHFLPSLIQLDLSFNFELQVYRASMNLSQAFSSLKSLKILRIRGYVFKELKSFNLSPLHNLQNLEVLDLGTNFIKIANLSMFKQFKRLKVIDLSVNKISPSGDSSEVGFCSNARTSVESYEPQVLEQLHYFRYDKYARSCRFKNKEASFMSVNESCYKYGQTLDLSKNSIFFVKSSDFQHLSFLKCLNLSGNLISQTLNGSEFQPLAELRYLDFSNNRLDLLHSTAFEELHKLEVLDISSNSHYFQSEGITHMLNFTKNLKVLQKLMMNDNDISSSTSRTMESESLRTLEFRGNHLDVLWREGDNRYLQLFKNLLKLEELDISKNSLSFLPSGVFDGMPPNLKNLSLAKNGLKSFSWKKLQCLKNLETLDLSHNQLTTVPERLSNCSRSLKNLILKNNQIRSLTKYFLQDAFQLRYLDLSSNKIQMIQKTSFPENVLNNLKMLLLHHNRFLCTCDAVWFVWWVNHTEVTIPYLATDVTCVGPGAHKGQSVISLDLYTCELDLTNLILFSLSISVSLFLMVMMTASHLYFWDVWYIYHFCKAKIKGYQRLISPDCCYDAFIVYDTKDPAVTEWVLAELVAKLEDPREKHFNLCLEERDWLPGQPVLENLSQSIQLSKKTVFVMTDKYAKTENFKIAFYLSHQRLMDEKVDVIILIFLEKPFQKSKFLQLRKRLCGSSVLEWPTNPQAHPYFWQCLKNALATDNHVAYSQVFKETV
As to the kind of experiment: cell-based. To be noted: for inhibition at 10 µM: read-out: inhibition at 10 μM.
Procedure: (§1) PBL contain as a subpopulation plasmacytoid dendritic cells which are the natural interferon producing cells during an infection and as such are an excellent model in which to profile interferon inducers. As an extremely sensitive antiviral bioassay, supernatant taken from PBL is assayed for antiviral activity in the HCV replicon system.
(§2) The HCV replicon (Huh-5-2[I389luc-ubi-neo-NS3-3′/ET]) is an in vitro model of HCV replication in which the luciferase reporter is incorporated into HCV sequences and stably maintained in the human hepatoma cell line Huh-7. The firefly luciferase reporter is expressed as a luciferase-ubiquitin-neomycin phosphotransferase fusion protein which is cleaved by host proteases to release luciferase. The replicon also contains an internal EMCV IRES, which drives translation of HCV NS3-5B polyprotein, which harbour cell culture adapted mutations to permit high cloning efficiency. […] Firefly luciferase activity is detected using a Bright-Glo™ Luciferase Assay System manufactured by Promega.
(§3) An initial 3 fold serial dilution series of compounds in 100% DMSO is prepared from stocks. The dilution series is then further diluted 100 fold with complete RPMI—FCS. The final concentration of DMSO in the assay is thus 0.1% and that of the test compound is 1/1000 in the 100% DMSO dilution series.
(§4) PBL are prepared seeded at 5×10^5/well/90 μl into the previously prepared compound containing assay plates (96 well clear bottomed TC grade) and incubated for 24 h.
(§5) LucUbiNeo HCV replicon cells are seeded at 10^4/well/90 μl. These are incubated for 24 h. After 24 h 10 μl of medium is transferred from the PBL assay plates to the HCV replicon plates and incubated for a further 48 h.

For test [2], the target named is T1, TLR7 receptor. The conditions noted are these: read-out: EC50 (antiviral EC50); concentration of test compound applied to PBL (24 h) giving 50% reduction of HCV replicon levels after transfer of PBL medium to Huh-5-2 luciferase replicon cells (48 h). A general note: Replicon systems follow genome replication, usually without infectious particles.
Procedure: as §1, §2, §3, §4, §5

Read-outs that look alike come from different tables or passages of the source.

By EC50 is commonly meant the concentration that produces a half-maximal response. As a reminder, the inhibition is the drop in the measured response relative to a control, in per cent. For the compound `Nc1nc(C(=O)NCC2CC2)nc2c1[nH]c(=O)n2Cc1ccccc1` [Example 1, 6-Amino-9-benzyl-8-oxo-8,9-dihydro-7H-purine-2-carboxylic acid cyclopropylmethyl-amide], in test [1], the half-maximal effective concentration (EC50) turned out to be 30 nM and the inhibition at 10 µM is over 50%.
For the compound `COCCNC(=O)c1nc(N)c2[nH]c(=O)n(Cc3ccccc3)c2n1` [Example 2], the inhibition at 10 µM in test [1] was over 50%. In addition, the EC50 in test [2] was 5 nM.
In the case of `Nc1nc(C(=O)N2CCC2)nc2c1[nH]c(=O)n2Cc1ccccc1` [Example 4], in test [1], a half-maximal effect (EC50) was put at 72 nM and the inhibition at 10 µM was over 50%.
On to `CNC(=O)c1nc(N)c2[nH]c(=O)n(Cc3ccccc3)c2n1` [Example 5], for which, in test [1], the EC50 came out at 42 nM and the inhibition at 10 µM is over 50%.
On to `CCNC(=O)c1nc(N)c2[nH]c(=O)n(Cc3ccccc3)c2n1` [Example 6], for which, in test [1], the EC50 is 17 nM and the inhibition at 10 µM was over 50%.
As for `NC(=O)c1nc(N)c2[nH]c(=O)n(Cc3ccccc3)c2n1` [Example 11], in test [1], the inhibition at 10 µM was over 50%.
The same measure, in the same setting: in the case of `Nc1nc(C(=O)NCc2ccccc2)nc2c1[nH]c(=O)n2Cc1ccccc1` [Example 14] it was over 50%; in that of `COCCn1c(=O)[nH]c2c(N)nc(C(=O)NCc3ccccc3)nc21` [Example 33], over 50%; in that of `COCCn1c(=O)[nH]c2c(N)nc(C(=O)N(C)Cc3ccccc3)nc21` [Example 36], over 50%.
As for `Cc1ccc(S(=O)(=O)NC(=O)c2nc(N)c3[nH]c(=O)n(Cc4ccccc4)c3n2)cc1` [Example 221, 6-Amino-9-benzyl-N-(toluylsulfonyl)-8-oxo-8,9-dihydro-7H-purine-2-carboxamide], in test [1], the inhibition at 10 µM is over 50%.
Consider `Nc1nc(C(=O)NS(=O)(=O)c2ccccc2)nc2c1[nH]c(=O)n2Cc1ccccc1` [Example 222], for which the inhibition at 10 µM in test [1] was over 50%.
On the same count and under the same terms, in the case of `CCCCS(=O)(=O)NC(=O)c1nc(N)c2[nH]c(=O)n(Cc3ccccc3)c2n1` [Example 226] it was over 50%.
